Test results reported in patent US10159640B2, “Prebiotic oral care compositions containing amino acids” (COLGATE-PALMOLIVE COMPANY, priority 2013, dated 2018).

Assays:
Assay type in all cases: cell-based
Streptococcus sanguinis = test: Metabolic activity, Biolog phenotype microarray; conditions: control without dipeptide = 1
Outline: (§1)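 Each species, grown 48 h anaerobically on blood agar, was suspended in IF-0 fluid with tetrazolium Redox Dye D, succinate and ferric citrate, then dispensed onto dipeptide-preloaded plates. Incubated anaerobically at 37° C; OD 492 nm read at 24 and 48 h versus no-dipeptide controls; mean of three biological replicates.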

Actinomyces viscosus = test: Metabolic activity, Biolog phenotype microarray; conditions: control without dipeptide = 1
Outline: as §1

Streptococcus salivarius = test: Metabolic activity, Biolog phenotype microarray; conditions: control without dipeptide = 1
Outline: as §1

Fusobacterium nucleatum = test: Metabolic activity, Biolog phenotype microarray; conditions: control without dipeptide = 1
Outline: as §1

[1] = test system: beneficial oral bacteria and pathogenic oral bacteria; test: Metabolic activity, whole panel: prebiotic effect; conditions: threshold value of 2
Outline: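 Biolog phenotype microarrays with dipeptide-preloaded wells; each species suspended in IF-0 with Redox Dye Mix D (85% transmittance) plus succinate/ferric citrate, incubated anaerobically at 37° C. Tetrazolium reduction read at 492 nm at 24 and 48 h versus no-dipeptide controls; values are means of three biological replicates.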

## Phe-Glu
Streptococcus sanguinis; 24 hrs
  metabolic activity: OD 492 nm divided by OD of control: 1.0204
Streptococcus sanguinis; 48 hrs
  metabolic activity: OD 492 nm divided by OD of control: 1.0208
Actinomyces viscosus; 24 hrs
  metabolic activity: OD 492 nm divided by OD of control: 1.3824
Actinomyces viscosus; 48 hrs
  metabolic activity: OD 492 nm divided by OD of control: 2.1224
Streptococcus salivarius; 24 hrs
  metabolic activity: OD 492 nm divided by OD of control: 1.0411
Streptococcus salivarius; 48 hrs
  metabolic activity: OD 492 nm divided by OD of control: 0.9959
Fusobacterium nucleatum; 24 hrs
  metabolic activity: OD 492 nm divided by OD of control: 0.9451
Fusobacterium nucleatum; 48 hrs
  metabolic activity: OD 492 nm divided by OD of control: 0.9112
[1]; 24 hrs
  prebiotic effects (metabolic activity): exhibited prebiotic effects
[1]; 48 hrs
  prebiotic effects (metabolic activity): exhibited prebiotic effects

## Met-Pro
Streptococcus sanguinis; 24 hrs
  metabolic activity: OD 492 nm divided by OD of control: 0.8599
Streptococcus sanguinis; 48 hrs
  metabolic activity: OD 492 nm divided by OD of control: 0.8295
Actinomyces viscosus; 24 hrs
  metabolic activity: OD 492 nm divided by OD of control: 1.5865
Actinomyces viscosus; 48 hrs
  metabolic activity: OD 492 nm divided by OD of control: 2.0588
Streptococcus salivarius; 24 hrs
  metabolic activity: OD 492 nm divided by OD of control: 0.9990
Streptococcus salivarius; 48 hrs
  metabolic activity: OD 492 nm divided by OD of control: 0.9500
Fusobacterium nucleatum; 24 hrs
  metabolic activity: OD 492 nm divided by OD of control: 0.8752
Fusobacterium nucleatum; 48 hrs
  metabolic activity: OD 492 nm divided by OD of control: 0.8113
[1]; 24 hrs
  prebiotic effects (metabolic activity): exhibited prebiotic effects
[1]; 48 hrs
  prebiotic effects (metabolic activity): exhibited prebiotic effects
